According to patent US11427560B2, “Composition and methods for inhibiting mammalian sterile 20-like kinase 1” (The Scripps Research Institute, priority 2015, dated 2022):

Assays:
human islets = assay: High glucose/palmitate induced apoptotic activity in human islets; conditions: high glucose and palmitate (HG/Pal), 25 μM neratinib, FIG. 8
Text: Freshly isolated human islets from a single donor were exposed to high glucose and palmitate (HG/Pal) to induce apoptosis.

beta cells = assay: Beta cell apoptosis with increasing neratinib concentrations (FIG. 3); type: cell-based; conditions: increasing concentrations of neratinib

Q: Which “MST1 phosphorylation (pMST1)” value (human islets) does the source give for CCOc1cc2ncc(C#N)c(Nc3ccc(OCc4ccccn4)c(Cl)c3)c2cc1NC(=O)/C=C/CN(C)C [neratinib] here?
A: The value was “inhibited”.

Q: And the “induction of cleaved caspase 3 (Cl Casp3)” value (human islets)?
A: Its value is “inhibited”.

Q: And the Beta cell apoptosis (beta cells)?
A: Its Beta cell apoptosis is “decrease with exposure to increasing concentrations”.
